Among the data in US20170014524A1, “AURISTATIN-ANTIBODY CONJUGATES AND USES THEREOF” (The California Institute for Biomedical Research, priority 2015, published 2017) are IC50 values, retold here.

SMILES strings stand for the structures. Where a SMILES comes first, the peptide text is derived from it. [ ]: non-standard residue; d: D form. The star is where a group is joined. Dolaproine = CO[C@@H]([C@@H]1CCCN1)[C@@H](C)C(=O)O; Dil = CC[C@H](C)[C@H](NC)[C@@H](CC(=O)O)OC; Doe = c1ccc(C[C@H](N*)c2nccs2)cc1; NMeV = CN[C@H](C(=O)O)C(C)C

Holding throughout (type): cell-based
Common to all, as to details: 600 nM to 30 pM, 4 days at 37° C.

Test [1] deals with Ramos (CXCR4+) cells. Put plainly: Cytotoxicity (CellTiter-Glo cell viability, 4 days) in Ramos cells. Here is the method:
(§1) Cell viabilities were measured by addition of CellTiter-Glo (Promega) and the luminescent signals were read by EnVision plate reader.
(§2) The following illustrative examples are representative of embodiments of the compositions and methods described herein and are not meant to be limiting in any way. All cell lines were purchased from ATCC unless otherwise stated. Ramos, Jurkat, OPM-2 cells were cultured in RPMI with 10% FBS and 100 U/mL Penicillin Streptomycin. MDA-MB-231 cells were cultured in DMEM (high glucose) with 10% FBS, 1 mM sodium pyruvate, and 100 U/mL Penicillin Streptomycin. SKBR-3 cells were cultured in DMEM with 10% FBS and 1x Antibiotic-Antimycotic (100 U/mL Penicillin Streptomycin, 0.25 μg/mL Fungizone). […]
(§3) Ramos (CXCR4+), Jurkat (CXCR4+), and MDA-MB-231 (CXCR4−) cells were treated with either small molecule drugs, anti-CXCR4 (SEQ ID NOS: 3, 4), or anti-CXCR4-auristatin conjugates with concentrations ranging from 600 nM to 30 pM for 4 days at 37° C. Cell viabilities were measured by addition of CellTiter-Glo (Promega) and the luminescent signals were read by EnVision plate reader.
(§4) Briefly, 1000 cells/well were seeded in a 384-well plate (45 uL/well with their corresponding media) and incubated at 37° C. overnight. […] Plates were shaken and incubated for at least 10 min before the generated luminescent signals were read using PerkinElmer EnVision Multilabel Reader.
A general note: In ATP-based viability assays light output follows the ATP content of the culture.

Test [2] concerns Jurkat (CXCR4+) cells. Put plainly: Cytotoxicity (CellTiter-Glo cell viability, 4 days) in Jurkat cells. The method, then:
as §1, §2, §3, §4

Test [3] relates to MDA-MB-231 (CXCR4−) cells. The experiment in a line: Cytotoxicity (CellTiter-Glo cell viability, 4 days) in MDA-MB-231 cells. The method, then:
as §1, §2, §3, §4

The term IC50 denotes the concentration at which inhibition is half-maximal. A low value points to higher potency. On to `CC[C@H](C)[C@@H]([C@@H](CC(=O)N1CCC[C@H]1[C@H](OC)[C@@H](C)C(=O)N[C@@H](Cc1ccccc1)c1nccs1)OC)N(C)C(=O)[C@@H](NC(=O)[C@@H](NC)C(C)C)C(C)C` [MMAD, monomethyl auristatin D] (H-[NMeV]V[Dil][Dolaproine]-Doe), for which the half-inhibitory concentration (IC50) turned out to be 1.4 nM in test [1], 2.8 nM in test [2] and 5.2 nM in test [3].
